“Also recorded” adds a separate entry of the source.

This test deals with X-ray irradiated mice. Description: Radiation dermatitis murine model (thoracic X-ray irradiation). The test is classed as in vivo, C57BL/6 mice.
Setting [1] is: 16.5 Gy, s.c. days 2, 7, 10 post-irradiation, TSN6 5 μg/day, HGF 3.3 μg/day, vs vehicle.
[2] abbreviates: skin 83 days post-irradiation, radiation alone.

Experimental: Sham irradiated mice without wounds were used as controls for radiation dermatitis, and treated identically as irradiated mice. Wounded mice, without radiation, were used as controls for combined injury.
Animals were irradiated in the RS2000 small animal irradiator. The RS2000 provides a cone-shaped radiation field with irradiation at 12.39-40.50 cm from the X-ray source. For dose measurements, irradiation was performed with the following settings: 160 kVp, 25 mA, 90 s irradiation time and 0.3 mm Cu beam filtration. The approximate HVL provided by the manufacturer was 0.62 mm Cu. […] A custom lead shield was placed on the floor of the irradiator, with the mouse thoracic region ˜43.75 cm from the X-ray source. Dose measurements were conducted twice to account for set-up error and reproducibility. […] The dose rate was reported for each aperture position 1-4 as an absorbed dose rate to water (ADRW, Gy/min) and the two repeated measurements were averaged.
Mice (12-14 weeks of age) were anesthetized using inhaled anesthesia (isoflurane), and the fur was clipped on the dorsal side of the thoracic region. […] Animals were then anesthetized with injected anesthesia (150 mg/kg ketamine/18 mg/kg xylazine) and placed in Lucite jigs for exposure to 16.5 Gy thoracic irradiation in the RS2000 X-ray irradiator as previously described [19].
TSN6 peptide (5 μg/day in 50 μl sterile saline) or hepatocyte growth factor (HGF; 3.3 μg/day in 50 μl sterile saline) or vehicle (sterile saline, 50 μl) were injected subcutaneously on days 2, 7 and 10 post-irradiation. Injections were made caudal, adjacent to the irradiated or irradiated/wounded area.
Animals were monitored daily for 85 days post-irradiation for both radiation dermatitis and combined injury models. Radiation dermatitis was separately scored for hair loss, erythema, scale, and ulceration. Scoring for erythema, scale and ulceration were previously described: 0=none; 1=minimal; 2=mild; 3=moderate; 4=marked [19]. Because all animals underwent fur clipping prior to irradiation and wounding, scoring for hair loss was determined as failure to regrow hair in the irradiated areas: 0=none; 1=minimal; 2=mild; 3=moderate; 4=marked. Animals were photographed for the measurement of wounds and for dermatitis scoring. […] Weight was measured as an indication of overall health.

As for “HSPDIQLQKGLTFEPIQIK [TSN6, 19 amino acid peptide derived from multimerin-1, Coiled coil domain]”, for the setting “16.5 Gy, TSN6 5 μg/day s.c. days 2, 7, 10 (FIG. 5E)”, the “combined scores of radiation skin effects” value is “marked reduction”. Under setting [1], the erythema score result is on record as “mitigated”, the hair loss score entry is “mitigated”, the “radiation dermatitis (overall measures)” value is reported as “mitigated; also recorded: Mitigation of radiation dermatitis” and the scale score result is “mitigated”. Also, under setting [2], the “adipose layer in H&E histological sections” value is listed as “preservation of the adipose layer”, the “epidermal thickening in H&E histological sections” value is “reduction of the epidermal thickening” and the “hair follicles within the irradiated area (histology)” value is reported as “restoration of hair follicles”.
